Measurements from US10131652B2, “Pyrimidinyloxy benzene derivatives as herbicides” (E. I. DU PONT DE NEMOURS AND COMPANY, priority 2014, dated 2018).

Assays:
Type in all cases: in vivo
[1] = system: blackgrass (Alopecurus myosuroides); experiment: Test B postemergence plant response
Outline: (§1)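 Visual injury rating, 0–100 (0 = no effect, 100 = complete control), vs untreated controls ~10 days after postemergence spray; greenhouse; potted loam soil/sand; plants 2–10 cm, 1–2 leaf stage.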

[2] = system: galium (catchweed bedstraw, Galium aparine); experiment: Test B postemergence plant response
Outline: as §1

[3] = system: small-flower umbrella sedge (Cyperus difformis); experiment: Test C flooded paddy test plant response; details: Flood, 250 g ai/ha; scale of 0 to 100 where 0 is no effect and 100 is complete control; 13 to 15 days
Outline: (§2)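 2-leaf plants; flood 3 cm, cpd into paddy water; greenhouse 13–15 d; visual score vs untreated, 0 = no effect, 100 = complete control; dash = no result.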

[4] = system: barnyardgrass (Echinochloa crus-galli); experiment: Test C flooded paddy test plant response; details: Flood, 250 g ai/ha; scale of 0 to 100 where 0 is no effect and 100 is complete control; 13 to 15 days
Outline: as §2

rice (Oryza sativa) = experiment: Test C flooded paddy test plant response; details: Flood, 250 g ai/ha; scale of 0 to 100 where 0 is no effect and 100 is complete control; 13 to 15 days
Outline: as §2

[5] = system: ducksalad (Heteranthera limosa); experiment: Test C flooded paddy test plant response; details: Flood, 250 g ai/ha; scale of 0 to 100 where 0 is no effect and 100 is complete control; 13 to 15 days
Outline: as §2

[6] = system: ragweed (common ragweed, Ambrosia elatior); experiment: Test B pre-/postemergence plant response
Outline: (§3)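 Steps: plant seeds in loam soil–sand mix; spray soil preemergence, and in parallel spray 2–10 cm one- to two-leaf plants postemergence; hold ~10 days in greenhouse; visually rate injury against untreated controls (0 = no effect, 100 = complete control).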

[7] = system: pigweed (Amaranthus retroflexus); experiment: Test B pre-/postemergence plant response
Outline: as §3

kochia (Kochia scoparia) = experiment: Test B pre-/postemergence plant response
Outline: as §3

[8] = system: wheat (Triticum aestivum); experiment: Test B pre-/postemergence plant response
Outline: as §3

[9] = system: Italian ryegrass (Lolium multiflorum); experiment: Test B pre-/postemergence plant response
Outline: as §3

[10] = system: barnyardgrass (Echinochloa crus-galli); experiment: Test B pre-/postemergence plant response
Outline: as §3

[11] = system: giant foxtail (Setaria faberii); experiment: Test B pre-/postemergence plant response
Outline: as §3

corn (Zea mays) = experiment: Test B pre-/postemergence plant response
Outline: as §3

[12] = 125 g ai/ha, postemergence, 0 to 100 scale, 0 no effect, 100 complete control
[13] = Postemergence, 31 g ai/ha, 0 to 100 scale (0 no effect, 100 complete control)
[14] = 31 g ai/ha, Preemergence, 0 to 100 scale where 0 is no effect and 100 is complete control
[15] = Preemergence, 125 g ai/ha, 0 to 100 scale (0 no effect, 100 complete control)

SMILES	Plant response rating, Blackgrass [1, 12]	Plant response rating, Blackgrass [1, 13]	Plant response rating, Galium [2, 12]	Plant response rating, Galium [2, 13]	Sedge, Umbrella plant response rating [3]	Barnyardgrass plant response rating [4]	Rice plant response rating (rice (Oryza sativa))	Ducksalad plant response rating [5]	Plant response rating, Ragweed [6, 14]	Plant response rating, Ragweed [6, 12]	Plant response rating, Ragweed [6, 13]	Ragweed plant response rating [6, 15]	Plant response rating, Pigweed [7, 14]	Plant response rating, Pigweed [7, 12]	Plant response rating, Pigweed [7, 13]	Pigweed plant response rating [7, 15]	Plant response rating, Kochia (kochia (Kochia scoparia); [14])	Plant response rating, Kochia (kochia (Kochia scoparia); [12])	Plant response rating, Kochia (kochia (Kochia scoparia); [13])	Kochia plant response rating (kochia (Kochia scoparia); [15])	further results
N#Cc1cc(-c2ccccc2Oc2ncc(Cl)cn2)on1 [Compound 223]	0	0	50	30	70	0	0	65	0	10	0	0	0	60	20	10	0	10	0	0	Plant response rating, Wheat [8, 12]: 0; Plant response rating, Wheat [8, 13]: 0; Plant response rating, Ryegrass, Italian [9, 14]: 0; Plant response rating, Ryegrass, Italian [9, 12]: 0; Plant response rating, Ryegrass, Italian [9, 13]: 0; Ryegrass, Italian plant response rating [9, 15]: 0; Plant response rating, Barnyardgrass [10, 14]: 0; Plant response rating, Barnyardgrass [10, 12]: 10; Plant response rating, Barnyardgrass [10, 13]: 0; Barnyardgrass plant response rating [10, 15]: 0; Plant response rating, Foxtail, Giant [11, 14]: 0; Plant response rating, Foxtail, Giant [11, 12]: 10; Plant response rating, Foxtail, Giant [11, 13]: 0; Foxtail, Giant plant response rating [11, 15]: 0; Plant response rating, Corn (corn (Zea mays); [12]): 0; Plant response rating, Corn (corn (Zea mays); [13]): 0
CCOC(=O)c1cc(-c2ccccc2Oc2ncc(Cl)cn2)on1 [Compound 225]	0	0	0	0	0	0	0	0	0	0	0	0	0	0	0	0	0	0	0	0	Plant response rating, Wheat [8, 12]: 0; Plant response rating, Wheat [8, 13]: 0; Plant response rating, Ryegrass, Italian [9, 14]: 0; Plant response rating, Ryegrass, Italian [9, 12]: 0; Plant response rating, Ryegrass, Italian [9, 13]: 0; Ryegrass, Italian plant response rating [9, 15]: 0; Plant response rating, Barnyardgrass [10, 14]: 0; Plant response rating, Barnyardgrass [10, 12]: 0; Plant response rating, Barnyardgrass [10, 13]: 0; Barnyardgrass plant response rating [10, 15]: 0; Plant response rating, Foxtail, Giant [11, 14]: 0; Plant response rating, Foxtail, Giant [11, 12]: 0; Plant response rating, Foxtail, Giant [11, 13]: 0; Foxtail, Giant plant response rating [11, 15]: 0; Plant response rating, Corn (corn (Zea mays); [12]): 0; Plant response rating, Corn (corn (Zea mays); [13]): 0
FC(F)(F)COc1cc(-c2ccccc2Oc2ncc(Cl)cn2)ncn1 [Compound 227]	70	10	80	70	85	0	0	98	0	30	10	0	40	90	60	80	0	80	40	50	Plant response rating, Wheat [8, 12]: 20; Plant response rating, Wheat [8, 13]: 0; Plant response rating, Ryegrass, Italian [9, 14]: 0; Plant response rating, Ryegrass, Italian [9, 12]: 30; Plant response rating, Ryegrass, Italian [9, 13]: 0; Ryegrass, Italian plant response rating [9, 15]: 10; Plant response rating, Barnyardgrass [10, 14]: 10; Plant response rating, Barnyardgrass [10, 12]: 60; Plant response rating, Barnyardgrass [10, 13]: 10; Barnyardgrass plant response rating [10, 15]: 50; Plant response rating, Foxtail, Giant [11, 14]: 40; Plant response rating, Foxtail, Giant [11, 12]: 60; Plant response rating, Foxtail, Giant [11, 13]: 10; Foxtail, Giant plant response rating [11, 15]: 90; Plant response rating, Corn (corn (Zea mays); [12]): 20; Plant response rating, Corn (corn (Zea mays); [13]): 10
Clc1cnc(Oc2ccccc2-c2ccsc2)nc1 [Compound 231]	0	0	20	0	70	0	0	65	0	0	0	0	0	40	20	20	0	40	20	0	Plant response rating, Wheat [8, 12]: 0; Plant response rating, Wheat [8, 13]: 0; Plant response rating, Ryegrass, Italian [9, 14]: 0; Plant response rating, Ryegrass, Italian [9, 12]: 0; Plant response rating, Ryegrass, Italian [9, 13]: 0; Ryegrass, Italian plant response rating [9, 15]: 0; Plant response rating, Barnyardgrass [10, 14]: 0; Plant response rating, Barnyardgrass [10, 12]: 10; Plant response rating, Barnyardgrass [10, 13]: 0; Barnyardgrass plant response rating [10, 15]: 10; Plant response rating, Foxtail, Giant [11, 14]: 0; Plant response rating, Foxtail, Giant [11, 12]: 10; Plant response rating, Foxtail, Giant [11, 13]: 0; Foxtail, Giant plant response rating [11, 15]: 10; Plant response rating, Corn (corn (Zea mays); [12]): 0; Plant response rating, Corn (corn (Zea mays); [13]): 0
Brc1cnc(Oc2ccccc2-c2ccsc2)nc1 [Compound 232]	0	0	0	0	0	0	0	0	0	0	0	0	20	40	10	30	0	0	0	0	Plant response rating, Wheat [8, 12]: 0; Plant response rating, Wheat [8, 13]: 0; Plant response rating, Ryegrass, Italian [9, 14]: 0; Plant response rating, Ryegrass, Italian [9, 12]: 0; Plant response rating, Ryegrass, Italian [9, 13]: 0; Ryegrass, Italian plant response rating [9, 15]: 0; Plant response rating, Barnyardgrass [10, 14]: 0; Plant response rating, Barnyardgrass [10, 12]: 0; Plant response rating, Barnyardgrass [10, 13]: 0; Barnyardgrass plant response rating [10, 15]: 20; Plant response rating, Foxtail, Giant [11, 14]: 0; Plant response rating, Foxtail, Giant [11, 12]: 0; Plant response rating, Foxtail, Giant [11, 13]: 0; Foxtail, Giant plant response rating [11, 15]: 10; Plant response rating, Corn (corn (Zea mays); [12]): 0; Plant response rating, Corn (corn (Zea mays); [13]): 0
